From the supplement of paper PMC10307832

Key:
Experiment in all cases: relative viability (nuclei count vs DMSO), 5 days (fraction); higher = more cells survive
AZ628 + OSI-027 = compound: CC1=C(C=C(C=C1)NC(=O)C2=CC(=CC=C2)C(C)(C)C#N)NC3=CC4=C(C=C3)N=CN(C4=O)C [AZ628] + COc1cccc2cc(-c3nc([C@H]4CC[C@H](C(=O)O)CC4)n4ncnc(N)c34)[nH]c12 [OSI-027] (partner 0.5 µM)
Summary of the method: (§1)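 The day after seeding in 1536-well plates, lung cancer cell lines were treated by pin tool with a single drug, or with a fixed anchor-drug dose together with five library-drug doses (not always all listed) in √10 steps. After 5 days, a combined fix-and-stain solution (final 0.05% Triton X-100, 1% formaldehyde, 1 ug/ml Hoechst) was added. Nuclei counted on 4× images gave relative viability as treated counts over vehicle counts, reported as the median of duplicate plates.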

QS11 + OSI-027 = compound: C1CC2=C(C1)C=C(C=C2)OC3=NC(=C4C(=N3)N(C=N4)CC5=CC=C(C=C5)C6=CC=CC=C6)N[C@@H](CC7=CC=CC=C7)CO [QS11] + COc1cccc2cc(-c3nc([C@H]4CC[C@H](C(=O)O)CC4)n4ncnc(N)c34)[nH]c12 [OSI-027] (partner 0.5 µM)
Summary of the method: as §1

QS11 + Vorinostat = compound: C1CC2=C(C1)C=C(C=C2)OC3=NC(=C4C(=N3)N(C=N4)CC5=CC=C(C=C5)C6=CC=CC=C6)N[C@@H](CC7=CC=CC=C7)CO [QS11] + O=C(CCCCCCC(=O)Nc1ccccc1)NO [Vorinostat] (partner 1 µM)
Summary of the method: as §1

Darinaparsin + Alpelisib = compound: C[As](C)SC[C@H](NC(=O)CC[C@H](N)C(=O)O)C(=O)NCC(=O)O [Darinaparsin] + Cc1nc(NC(=O)N2CCC[C@H]2C(N)=O)sc1-c1ccnc(C(C)(C)C(F)(F)F)c1 [Alpelisib] (partner 2 µM)
Summary of the method: as §1

Cell Line | relative viability (AZ628 + OSI-027; first compound 0.08 µM) | relative viability (AZ628 + OSI-027; first compound 0.253 µM) | relative viability (AZ628 + OSI-027; first compound 0.8 µM) | relative viability (AZ628 + OSI-027; first compound 2.53 µM) | relative viability (AZ628 + OSI-027; first compound 8 µM) | relative viability (QS11 + OSI-027; first compound 0.08 µM) | relative viability (QS11 + OSI-027; first compound 0.253 µM) | relative viability (QS11 + OSI-027; first compound 0.8 µM) | relative viability (QS11 + OSI-027; first compound 2.53 µM) | relative viability (QS11 + OSI-027; first compound 8 µM) | relative viability (QS11 + Vorinostat; first compound 0.08 µM) | relative viability (QS11 + Vorinostat; first compound 0.253 µM) | relative viability (QS11 + Vorinostat; first compound 0.8 µM) | relative viability (QS11 + Vorinostat; first compound 2.53 µM) | relative viability (QS11 + Vorinostat; first compound 8 µM) | relative viability (Darinaparsin + Alpelisib; first compound 0.08 µM) | relative viability (Darinaparsin + Alpelisib; first compound 0.8 µM) | relative viability (Darinaparsin + Alpelisib; first compound 2.53 µM) | relative viability (Darinaparsin + Alpelisib; first compound 8 µM)
NCI-H520 | 0.262 | 0.21 | 0.206 | 0.203 | 0.232 | 0.196 | 0.265 | 0.297 | 0.175 | 0.268 | 0.758 | 0.758 | 0.639 | 0.804 | 0.88 | 1.07 | 0.712 | 0.885 | 1.04
H3255 | 0.64 | 0.484 | 0.564 | 0.584 | 0.323 | 0.593 | 0.675 | – | 0.558 | 0.608 | 0.763 | 0.947 | – | 0.758 | 0.861 | 0.761 | 0.626 | 0.636 | 0.792
PC-14 | 0.727 | 0.956 | 0.733 | 0.666 | 0.329 | 0.731 | 0.98 | 0.809 | 0.807 | 0.695 | – | 0.839 | 0.695 | 0.808 | 0.69 | 0.858 | 1.02 | 0.742 | 1.2
HCC-78 | 0.427 | 0.37 | 0.391 | 0.341 | 0.399 | 0.405 | 0.351 | 0.35 | 0.435 | 0.478 | 0.4 | 0.48 | 0.518 | 0.46 | 0.444 | 0.363 | 0.301 | 0.358 | 0.259
CAL-12T | 0.891 | 0.572 | 0.408 | 0.345 | 0.267 | 0.656 | 0.457 | 0.498 | 0.385 | 0.407 | 0.867 | 0.915 | 0.713 | 0.983 | 0.704 | 1.41 | 1.01 | 1.28 | 1.89
